Results: patent US8785453B2, “Arylpiperazine-containing purine derivatives and uses thereof” (Green Cross Corporation, priority 2009, dated 2014)

Legend:
mice [1] = assay: Synergy effect of the inventive compound combined with conventional anti-depressants in forced swimming test; type: in vivo; conditions: for anti-immobility effect in FST, anti-depressant alone: 25 mg/kg p.o.
Protocol: Each drug or vehicle was suspended in 3% Tween 80 solution and administered orally (p.o.) 60 min before forced swimming test.

[2] = target: T1, human recombinant serotonin 5-HT2A receptor (Homo sapiens, UniProt P28223); assay: Binding affinity for serotonin 5-HT2A receptor ([3H]Ketanserin); conditions: CHO-K1 cells, 1 nM [3H]Ketanserin; read-out: binding affinity (IC50) 5-HT2A
T1 construct: purchased PerkinElmer Life and Analytical Sciences, USA; host or cells: CHO-K1 cells
T1 sequence (P28223 whole entry): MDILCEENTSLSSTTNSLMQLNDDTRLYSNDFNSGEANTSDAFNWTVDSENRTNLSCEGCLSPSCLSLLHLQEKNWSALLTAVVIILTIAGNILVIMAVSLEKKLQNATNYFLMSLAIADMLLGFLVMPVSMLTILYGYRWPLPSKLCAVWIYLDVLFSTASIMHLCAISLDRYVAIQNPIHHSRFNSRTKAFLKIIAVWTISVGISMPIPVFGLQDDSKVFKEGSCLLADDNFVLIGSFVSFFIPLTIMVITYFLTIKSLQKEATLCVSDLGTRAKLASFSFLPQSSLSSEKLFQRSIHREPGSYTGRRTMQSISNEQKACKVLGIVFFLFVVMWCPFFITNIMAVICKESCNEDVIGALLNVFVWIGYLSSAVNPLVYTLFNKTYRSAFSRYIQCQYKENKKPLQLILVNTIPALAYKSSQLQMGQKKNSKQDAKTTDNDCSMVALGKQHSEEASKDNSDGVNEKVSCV
Protocol: (§1) Receptor binding affinities of the compounds for serotonin receptors were measured by the method described in the literature (see [Park W K et al., Pharmacol Biochem Behav., 82(2), 361-372 (2005)].
For serotonin 5-HT2A binding, an aliquot of human recombinant serotonin 5-HT2A receptor (PerkinElmer Life and Analytical Sciences, USA) expressed in CHO-K1 cells (5 μg/well) and 1 nM [^3H]Ketanserin (PerkinElmer) were used in the presence of mianserin (20 μM) as a nonspecific. The reaction mixture was incubated for 60 min […] 50 mM Tris-HCl (pH 7.4) buffer containing 4 mM CaCl2 and 0.1% ascorbic acid, and harvested through filtermate A glass fiber filter (Wallac, Finland) presoaked in 0.5% polyethyleneimine (PEI) by microbeta filtermate-96 harvester (PerkinElmer) to terminate the reaction, and then washed with ice cold 50 mM Tris-HCl buffer solution (pH 7.4). The filter was then covered with MeltiLex, sealed in a sample bag, dried in an oven. The radioactivity retained in the filter was finally counted using MicroBeta Plus (Wallac).
(§2) The binding affinity (IC50) of a compound for the receptor was calculated by computerized nonlinear regression analysis (GraphPad Prism Program, San Diego, USA) using 7-8 varied concentrations of the compound run in duplicate tubes.

[3] = target: T2, human recombinant 5-HT2C receptor (Homo sapiens, UniProt P28335); assay: Binding affinity for serotonin 5-HT2C receptor ([3H]Mesulergine); conditions: CHO-K1 membranes, 1.3 nM [3H]Mesulergine; read-out: binding affinity (IC50) 5-HT2C
T2 construct: purchased PerkinElmer
T2 sequence (P28335 33-458): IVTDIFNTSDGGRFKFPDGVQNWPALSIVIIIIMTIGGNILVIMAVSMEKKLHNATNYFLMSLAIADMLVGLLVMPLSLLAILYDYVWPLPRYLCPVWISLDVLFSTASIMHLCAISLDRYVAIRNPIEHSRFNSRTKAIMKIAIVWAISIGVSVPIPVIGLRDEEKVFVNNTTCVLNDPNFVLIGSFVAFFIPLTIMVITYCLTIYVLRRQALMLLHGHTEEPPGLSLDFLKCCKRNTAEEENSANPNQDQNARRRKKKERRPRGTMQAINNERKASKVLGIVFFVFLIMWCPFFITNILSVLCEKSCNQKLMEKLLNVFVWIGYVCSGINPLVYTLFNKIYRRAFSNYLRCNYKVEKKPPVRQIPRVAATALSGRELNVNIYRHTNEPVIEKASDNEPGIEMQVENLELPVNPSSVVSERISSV
Protocol: as §1, §2
For serotonin 5-HT2C binding, frozen membranes from stable CHO-K1 cell line expressing the human recombinant 5-HT2C receptor (PerkinElmer, 4 μg/well), [^3H]Mesulergine (Amersham, 1.3 nM) and test compounds were added into 50 mM Tris-HCl (pH 7.4) buffer containing 0.1% ascorbic acid and 4 mM CaCl2. Nonspecific binding was determined using 100 μM mianserin. The incubations were performed for 60 min at 27, and these were terminated by rapid filtration through filtermate A glass fiber filter presoaked in 0.5% PEI.

[4] = target: T3, human serotonin transporter (Homo sapiens, UniProt P31645); assay: Binding affinity for serotonin transporter ([3H]Imipramine); conditions: HEK-293 membrane, 2 nM [3H]Imipramine; read-out: binding affinity Serotonin Transporter
T3 construct: purchased PerkinElmer; host or cells: HEK-293 cells
T3 sequence (P31645 whole entry): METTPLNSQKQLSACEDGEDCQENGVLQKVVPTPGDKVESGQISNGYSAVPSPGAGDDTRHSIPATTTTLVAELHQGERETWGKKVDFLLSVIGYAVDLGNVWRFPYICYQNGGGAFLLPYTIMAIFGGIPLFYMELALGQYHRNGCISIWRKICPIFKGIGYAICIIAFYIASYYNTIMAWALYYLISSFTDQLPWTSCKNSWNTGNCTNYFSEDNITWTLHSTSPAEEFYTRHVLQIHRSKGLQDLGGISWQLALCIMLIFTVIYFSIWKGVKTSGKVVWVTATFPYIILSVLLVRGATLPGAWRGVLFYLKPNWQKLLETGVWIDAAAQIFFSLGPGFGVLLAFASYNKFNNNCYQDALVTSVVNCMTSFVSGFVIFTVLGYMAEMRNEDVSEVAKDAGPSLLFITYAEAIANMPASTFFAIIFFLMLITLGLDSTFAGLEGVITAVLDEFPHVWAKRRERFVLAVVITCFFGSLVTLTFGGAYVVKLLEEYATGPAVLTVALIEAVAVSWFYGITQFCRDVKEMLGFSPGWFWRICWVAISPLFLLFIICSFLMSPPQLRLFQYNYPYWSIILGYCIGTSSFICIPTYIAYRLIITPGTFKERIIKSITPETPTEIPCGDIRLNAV
Protocol: For serotonin transporter binding assays, a reaction mixture with a final volume of 0.25 ml was prepared by mixing a test compound, human serotonin transporter membrane expressed in HEK-293 cells (PerkinElmer, 5 μg/well), [^3H] Imipramine (PerkinElmer, 2 nM) and 50 mM Tris-HCl (pH 7.4) buffer containing 120 mM NaCl and 5 mM KCl. The reaction mixture was incubated for 30 min at 27, and harvested through filtermate A glass fiber filter presoaked in 0.5% PEI with ice cold 50 mM Tris-HCl buffer (pH 7.4) containing 0.9% NaCl.

mice [5] = assay: Anti-depressants activity in forced swimming test; type: in vivo; conditions: 60 min before testing
Protocol: Each mouse was placed in a 25 cm glass cylinder (10 cm diameter) containing 15 cm of water maintained at 22±1, and was forced to swim for 10 min. 24 hours later, the mouse was replaced into the cylinder and the total duration of immobility was recorded during the last 5 min of the 6-min testing period. Mice are judged immobile when they float in an upright position and make only small movements to keep their head above water. Test drugs were suspended in 3% Tween 80 solution, and administered orally (po) 60 min before the testing.

Compound	anti-immobility effect in FST, anti-depressant alone (mice [1])	IC50 [2] [nM]	IC50 [3] [nM]	IC50 [4] [nM]	Immobility in forced swimming test (mice [5]; 25 mg/kg po) [%]	Immobility in forced swimming test (mice [5]; 50 mg/kg po) [%]	efficacy in forced swimming test, compound alone (mice [1]; 12.5 mg/kg or 25 mg/kg p.o.)
COc1ccc(C(CN(C)C)C2(O)CCCCC2)cc1 (stereo not drawn) [Effexor]	did not improve the anti-immobility effect						
Cc1cccc(N2CCN(CCCCNc3ncnc4c3nc(-c3ccccc3)n4-c3ccccc3)CC2)c1C [Example 68, N-(4-(4-(2,3-dimethylphenyl)piperazin-1-yl)butyl)-8,9-diphenyl-9H-purine-6-amine]		2.4	4.7	146	78.66 ± 11.33	72.11 ± 7.63	do not demonstrate efficacy on animal model
CSc1ccc(-n2c(C)nc3c(NCCCN4CCN(c5cccc(C)c5C)CC4)ncnc32)cc1.Cl [Example 86, N-(3-(4-(2,3-dimethylphenyl)piperazin-1-yl)propyl)-8-methyl-9-(4-(methylthio)phenyl)-9H-purine-6-amine hydrochloride]		25	376	64	66.53 ± 8.35		
CCc1nc2c(NCCN3CCN(c4cccc(C)c4C)CC3)ncnc2n1-c1ccc(SC)cc1.Cl [Example 87, N-(2-(4-(2,3-dimethylphenyl)piperazin-1-yl)ethyl)-8-ethyl-9-(4-(methylthio)phenyl)-9H-purine-6-amine hydrochloride]		9.3	100	136	88.26 ± 6.05		
Cc1cccc(N2CCN(CCNc3ncnc4c3nc(-c3cccs3)n4-c3ccccc3)CC2)c1C.Cl [Example 91, N-(2-(4-(2,3-dimethylphenyl)piperazin-1-yl)ethyl)-9-phenyl-8-(thiophen-2-yl)-9H-purine-6-amine hydrochloride]		28	141	316	89.19 ± 9.17		
Cc1cccc(N2CCN(CCCNc3ncnc4c3nc(-c3cccs3)n4-c3ccccc3)CC2)c1C.Cl [Example 92, N-(3-(4-(2,3-dimethylphenyl)piperazin-1-yl)propyl)-9-phenyl-8-(thiophen-2-yl)-9H-purine-6-amine hydrochloride]		17	301	38.9	85.86 ± 8.90		
CNCCC(Oc1ccc(C(F)(F)F)cc1)c1ccccc1 (stereo not drawn) [Prozac]	did not improve the anti-immobility effect						
